Assay results reported in US9636368B2, “Strain of Lactobacillus rhamnosus and its metabolites for use in inhibiting xanthine oxidase and treating gout” (Food Industry Research and Development Institute, priority 2014, dated 2017).

Tested on: uric acid in the serum of the mice
Experiment: Treatment of experimental uricemia: potassium oxonate-induced high serum uric acid in ICR mice
Format: in vivo
Details: potassium oxonate (400 mg/kg) + allopurinol 10 mg/kg, fed via feeding tube, sacrificed after one hour, oxonate alone 4.91 ± 0.08, saline control 3.51 ± 0.02
Protocol: Lactobacillus rhamnosus I21 was inoculated on an MRS plate and cultured at 37° C. for 3 days. Bacteria were scraped from the plate using a 1 μl sterile inoculation loop, inoculated into MRS broth, and grown at 37° C. for 1 day to prepare an inoculum. The inoculum (30 ml) was then added into 3 L MRS broth in a 5 L fermenter and grown at 37° C. for 2 days. The fermentation broth was centrifuged at 3000 rpm for 15 min. The supernatant was collected and lyophilized to produce the Lactobacillus rhamnosus I21 fermentation product.
ICR mice were used as experimental animals. Potassium oxonate, a uricase inhibitor, was used to induce a high level of uric acid in the serum of the mice. Mice were fasted for one hour and then fed saline or potassium oxonate (400 mg/kg) via a feeding tube. After one hour, potassium oxonate-treated mice were fed saline, allopurinol (10 mg/kg), or a Lactobacillus rhamnosus I21 fermentation product (150 mg or 200 mg resuspended in saline per mouse) prepared as described above. Ten animals were used for each experimental group and for the control group. The animals were sacrificed after one hour and the level of uric acid in their serum was analyzed.

SMILES: Oc1ncnc2[nH]ncc12 [allopurinol]
- serum uric acid concentration: 2.82 ± 0.28 mg/dL
